Consider one compound from ChEMBL document CHEMBL4311992, “Discovery of 3-(((9H-purin-6-yl)amino)methyl)-4,6-dimethylpyridin-2(1H)-one derivatives as novel tubulin polymerization inhibitors for treatment of cancer” (Eur J Med Chem, 2019).

Active and inactive are the calls of the source. The calls are words filed in the database; no cut-off is given here.

In assay [1] the target is Mitogen-activated protein kinase kinase kinase kinase 5 (Homo sapiens) (UniProt Q9Y4K4). As to the kind of experiment: Inhibition of recombinant full-length human MAP4K5 assessed as residual activity at 10 uM using myelin basic protein as substrate measured after 40 mins in presence of [gamma33P]ATP by scintillation counting method.
The target in assay [2] is Tyrosine-protein kinase CSK (Homo sapiens) (UniProt P41240). Briefly: Inhibition of full-length recombinant human CSK assessed as residual activity at 10 uM using poly(Glu, Tyr) 4:1 as substrate measured after 40 mins in presence of [gamma33P]ATP by scintillation counting method.
The target of assay [3] is Casein kinase II subunit alpha (Homo sapiens) (UniProt P68400). As to the kind of experiment: Inhibition of recombinant full length human CK2alpha2 assessed as residual activity at 10 uM using RRRDDDSDDD as substrate measured after 40 mins in presence of [gamma33P]ATP by scintillation counting method.
The target in assay [4] is High affinity nerve growth factor receptor (Homo sapiens) (UniProt P04629). Briefly: Inhibition of human TrkA (440 to end residues) using KKKSPGEYVNIEFG as substrate measured after 40 mins in presence of [gamma33P]ATP by scintillation counting method. More on the design: scale not given: the % may be the effect or the level left.
The target in assay [5] is Testis-specific serine/threonine-protein kinase 3 (Homo sapiens) (UniProt Q96PN8). Briefly: Inhibition of recombinant full-length human TSSK3 assessed as residual activity at 10 uM using AMARAASAAALARRR as substrate measured after 40 mins in presence of [gamma33P]ATP by scintillation counting method.
The subject of assay [6] is Epidermal growth factor receptor (Homo sapiens), P00533 [T790M]. Briefly: Inhibition of recombinant human EGFR T790M mutant (696 to end residues) assessed as residual activity at 10 uM using GGMEDIYFEFMGGKKK as substrate measured after 40 mins in presence of [gamma33P]ATP by scintillation counting method.
Assay [7] deals with Mitogen-activated protein kinase 14 (Homo sapiens), Q16539 [T106M]. As to the kind of experiment: Inhibition of recombinant full-length human SAPK2a T106M mutant assessed as residual activity at 10 uM using myelin basic protein as substrate measured after 40 mins in presence of [gamma33P]ATP by scintillation counting method.
Assay [8] has as its system HCT-116. As to the kind of experiment: Induction of apoptosis in human HCT116 cells assessed as decrease in Bcl2 expression up to 200 nM measured after 48 hrs by Western blot analysis. Format: functional, cell-based. In general terms: In western blotting, separated proteins are transferred to a membrane and probed.
The species named for assay [9] is Mus musculus. Briefly: Inhibition of recombinant full-length mouse PI3K p110alpha/p85alpha E545K mutant assessed as residual activity at 10 uM using phosphatidylinositol-4, 5-bisphosphate as substrate measured after 40 mins by HTRF assay. (In general: Time-resolved FRET reads energy transfer from a long-lived donor to a nearby acceptor.)
Assay [10] addresses Serine/threonine-protein kinase 3 (Homo sapiens) (UniProt Q13188). Briefly: Inhibition of recombinant full-length human MST2 (2 to end residues) assessed as residual activity at 10 uM using myelin basic protein as substrate measured after 40 mins in presence of [gamma33P]ATP by scintillation counting method.
Assay [11] deals with Serine/threonine-protein kinase WNK4 (Homo sapiens) (UniProt Q96J92). As to the kind of experiment: Inhibition of human WNK4 using myelin basic protein as substrate measured after 120 mins in presence of [gamma33P]ATP by scintillation counting method. More on the design: scale not given: the % may be the effect or the level left.
The test system of assay [12] is HCT-116. Briefly: Induction of apoptosis in human HCT116 cells assessed as late apoptotic cells at 50 nM measured after 48 hrs by Annexin V-FITC/propidium iodide staining-based flow cytometry (reference value: 3.87%). It counts as functional. In general terms: In flow cytometry, cells or beads pass a laser one at a time.
The species named for assay [13] is Mus musculus. Briefly: Inhibition of recombinant full-length mouse PI3K p110alpha/p85alpha assessed as residual activity at 10 uM using phosphatidylinositol-4, 5-bisphosphate as substrate measured after 40 mins by HTRF assay.
For the next assay, the system named is SW-620. Briefly: Induction of cell cycle arrest in human SW620 cells assessed as accumulation at G2/M phase after 24 hrs by propidium iodide-staining based flow cytometry. Format: functional.
In assay [14] the target is Tau-tubulin kinase 1 (Homo sapiens) (UniProt Q5TCY1). Briefly: Inhibition of human TTBK1 (1 to 479 residues) using Casein as substrate measured after 40 mins in presence of [gamma33P]ATP by scintillation counting method. More on the design: scale not given: the % may be the effect or the level left.
Chain of Tau-tubulin kinase 1 (Homo sapiens) (Q5TCY1 whole entry, the tested form may be a part): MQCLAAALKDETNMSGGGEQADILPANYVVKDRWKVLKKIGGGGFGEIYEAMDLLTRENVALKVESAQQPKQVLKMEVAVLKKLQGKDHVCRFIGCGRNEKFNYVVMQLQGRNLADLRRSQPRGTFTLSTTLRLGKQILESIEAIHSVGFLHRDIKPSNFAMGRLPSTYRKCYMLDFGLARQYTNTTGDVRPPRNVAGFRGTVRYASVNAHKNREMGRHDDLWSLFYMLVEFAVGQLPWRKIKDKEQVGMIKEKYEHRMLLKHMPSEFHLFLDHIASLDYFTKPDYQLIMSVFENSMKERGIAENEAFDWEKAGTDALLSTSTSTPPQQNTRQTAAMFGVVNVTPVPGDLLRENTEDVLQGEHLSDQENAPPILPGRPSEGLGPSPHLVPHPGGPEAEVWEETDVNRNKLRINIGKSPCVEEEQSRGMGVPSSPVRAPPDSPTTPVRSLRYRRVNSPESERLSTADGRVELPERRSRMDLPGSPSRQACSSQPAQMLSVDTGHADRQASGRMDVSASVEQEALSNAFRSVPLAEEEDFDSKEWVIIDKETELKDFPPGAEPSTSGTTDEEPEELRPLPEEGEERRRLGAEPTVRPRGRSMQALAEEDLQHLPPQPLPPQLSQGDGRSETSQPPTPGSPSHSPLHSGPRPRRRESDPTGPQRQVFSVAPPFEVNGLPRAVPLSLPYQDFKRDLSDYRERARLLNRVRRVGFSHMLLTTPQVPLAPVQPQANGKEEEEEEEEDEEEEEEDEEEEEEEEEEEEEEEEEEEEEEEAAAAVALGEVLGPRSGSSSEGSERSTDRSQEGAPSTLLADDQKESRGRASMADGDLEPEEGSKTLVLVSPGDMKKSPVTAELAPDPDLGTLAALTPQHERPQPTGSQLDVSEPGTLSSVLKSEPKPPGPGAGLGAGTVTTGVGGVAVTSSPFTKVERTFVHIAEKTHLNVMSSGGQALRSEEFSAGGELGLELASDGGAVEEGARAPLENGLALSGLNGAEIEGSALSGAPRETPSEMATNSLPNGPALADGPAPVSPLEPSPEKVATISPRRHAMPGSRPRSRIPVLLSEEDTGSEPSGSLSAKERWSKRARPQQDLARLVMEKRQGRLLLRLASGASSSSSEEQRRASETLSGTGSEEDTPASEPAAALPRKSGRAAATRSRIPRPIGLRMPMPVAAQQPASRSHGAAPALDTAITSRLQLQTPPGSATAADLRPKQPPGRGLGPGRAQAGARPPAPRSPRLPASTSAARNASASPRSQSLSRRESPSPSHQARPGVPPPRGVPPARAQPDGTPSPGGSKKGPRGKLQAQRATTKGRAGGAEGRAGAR

Chain of Tyrosine-protein kinase CSK (Homo sapiens) (P41240 2-450 limits assumed): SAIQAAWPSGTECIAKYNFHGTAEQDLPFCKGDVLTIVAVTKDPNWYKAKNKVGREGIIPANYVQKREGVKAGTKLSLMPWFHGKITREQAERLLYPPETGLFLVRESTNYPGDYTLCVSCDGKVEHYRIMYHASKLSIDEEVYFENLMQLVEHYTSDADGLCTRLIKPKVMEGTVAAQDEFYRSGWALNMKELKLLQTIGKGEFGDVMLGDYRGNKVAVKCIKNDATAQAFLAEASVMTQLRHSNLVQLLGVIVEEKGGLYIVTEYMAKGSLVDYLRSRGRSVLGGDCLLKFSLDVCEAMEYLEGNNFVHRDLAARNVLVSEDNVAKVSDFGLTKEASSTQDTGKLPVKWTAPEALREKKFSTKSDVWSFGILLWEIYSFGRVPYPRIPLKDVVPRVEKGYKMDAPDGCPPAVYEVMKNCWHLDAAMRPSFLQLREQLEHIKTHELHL
Chain of Serine/threonine-protein kinase WNK4 (Homo sapiens) (Q96J92 whole entry): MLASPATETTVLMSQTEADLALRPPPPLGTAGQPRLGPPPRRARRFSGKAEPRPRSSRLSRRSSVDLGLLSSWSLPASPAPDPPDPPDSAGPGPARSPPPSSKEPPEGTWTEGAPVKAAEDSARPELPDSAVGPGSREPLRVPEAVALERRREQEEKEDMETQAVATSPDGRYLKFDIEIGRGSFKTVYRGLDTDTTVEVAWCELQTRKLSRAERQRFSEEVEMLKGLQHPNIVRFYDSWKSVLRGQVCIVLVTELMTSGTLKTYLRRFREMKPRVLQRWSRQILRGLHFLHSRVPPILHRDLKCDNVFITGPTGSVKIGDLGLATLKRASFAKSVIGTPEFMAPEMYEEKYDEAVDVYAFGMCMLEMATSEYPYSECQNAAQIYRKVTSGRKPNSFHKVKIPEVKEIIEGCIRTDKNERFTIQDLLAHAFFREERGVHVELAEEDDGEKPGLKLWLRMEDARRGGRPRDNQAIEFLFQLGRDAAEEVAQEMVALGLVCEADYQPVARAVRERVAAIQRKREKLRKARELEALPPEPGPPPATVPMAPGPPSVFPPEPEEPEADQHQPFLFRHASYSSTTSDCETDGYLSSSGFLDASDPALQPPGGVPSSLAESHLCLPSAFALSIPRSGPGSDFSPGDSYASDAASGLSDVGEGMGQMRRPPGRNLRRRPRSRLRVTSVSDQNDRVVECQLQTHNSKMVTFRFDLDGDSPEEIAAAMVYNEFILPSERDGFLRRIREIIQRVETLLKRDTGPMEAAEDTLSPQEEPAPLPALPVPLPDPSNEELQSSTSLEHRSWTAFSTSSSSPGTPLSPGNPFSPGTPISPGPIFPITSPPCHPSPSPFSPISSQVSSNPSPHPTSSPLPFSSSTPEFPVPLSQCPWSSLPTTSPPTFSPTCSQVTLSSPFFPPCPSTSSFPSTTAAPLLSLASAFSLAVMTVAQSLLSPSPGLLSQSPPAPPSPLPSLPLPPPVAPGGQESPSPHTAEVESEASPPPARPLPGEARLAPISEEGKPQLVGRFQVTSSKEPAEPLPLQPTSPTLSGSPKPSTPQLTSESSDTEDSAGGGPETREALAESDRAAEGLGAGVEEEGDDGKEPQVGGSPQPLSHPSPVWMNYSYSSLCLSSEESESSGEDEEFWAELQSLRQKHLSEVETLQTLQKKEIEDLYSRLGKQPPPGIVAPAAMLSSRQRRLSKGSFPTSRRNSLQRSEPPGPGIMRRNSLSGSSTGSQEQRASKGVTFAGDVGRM
Chain of Casein kinase II subunit alpha (Homo sapiens) (P68400 whole entry, looked up): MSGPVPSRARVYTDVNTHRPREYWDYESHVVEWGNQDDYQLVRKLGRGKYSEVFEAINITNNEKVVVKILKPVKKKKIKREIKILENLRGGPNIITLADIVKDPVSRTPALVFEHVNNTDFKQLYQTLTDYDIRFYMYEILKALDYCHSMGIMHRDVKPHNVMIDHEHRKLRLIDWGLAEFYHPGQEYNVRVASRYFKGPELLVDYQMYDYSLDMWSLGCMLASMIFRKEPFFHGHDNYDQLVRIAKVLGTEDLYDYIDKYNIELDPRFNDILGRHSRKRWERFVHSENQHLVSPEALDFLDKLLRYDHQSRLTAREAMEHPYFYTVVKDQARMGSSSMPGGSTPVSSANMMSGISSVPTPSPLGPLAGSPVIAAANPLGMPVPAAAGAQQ
Chain of Mitogen-activated protein kinase kinase kinase kinase 5 (Homo sapiens) (Q9Y4K4 whole entry, looked up): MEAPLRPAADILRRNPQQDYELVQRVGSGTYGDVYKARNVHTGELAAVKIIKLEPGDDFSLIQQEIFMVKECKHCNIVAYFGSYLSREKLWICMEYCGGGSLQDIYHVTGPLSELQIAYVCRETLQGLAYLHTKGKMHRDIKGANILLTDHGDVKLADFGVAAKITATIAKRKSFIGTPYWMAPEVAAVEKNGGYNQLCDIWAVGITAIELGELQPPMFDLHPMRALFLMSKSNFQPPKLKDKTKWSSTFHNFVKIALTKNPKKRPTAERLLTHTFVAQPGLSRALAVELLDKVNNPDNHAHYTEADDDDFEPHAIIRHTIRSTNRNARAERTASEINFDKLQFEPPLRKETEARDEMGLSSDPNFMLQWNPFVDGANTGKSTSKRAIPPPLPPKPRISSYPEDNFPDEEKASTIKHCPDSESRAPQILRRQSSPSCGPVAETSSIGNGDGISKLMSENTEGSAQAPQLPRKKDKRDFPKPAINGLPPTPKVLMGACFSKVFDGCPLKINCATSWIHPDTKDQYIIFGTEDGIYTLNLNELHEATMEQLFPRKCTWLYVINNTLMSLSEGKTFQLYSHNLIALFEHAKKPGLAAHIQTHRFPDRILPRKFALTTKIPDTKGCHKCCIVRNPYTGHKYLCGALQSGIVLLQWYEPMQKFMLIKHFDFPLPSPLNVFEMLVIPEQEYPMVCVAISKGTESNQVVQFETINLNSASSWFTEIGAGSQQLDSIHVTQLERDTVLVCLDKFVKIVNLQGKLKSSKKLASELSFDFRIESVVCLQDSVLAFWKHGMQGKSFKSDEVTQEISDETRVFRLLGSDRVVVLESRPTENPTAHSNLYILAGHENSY
Chain of Serine/threonine-protein kinase 3 (Homo sapiens) (Q13188 whole entry): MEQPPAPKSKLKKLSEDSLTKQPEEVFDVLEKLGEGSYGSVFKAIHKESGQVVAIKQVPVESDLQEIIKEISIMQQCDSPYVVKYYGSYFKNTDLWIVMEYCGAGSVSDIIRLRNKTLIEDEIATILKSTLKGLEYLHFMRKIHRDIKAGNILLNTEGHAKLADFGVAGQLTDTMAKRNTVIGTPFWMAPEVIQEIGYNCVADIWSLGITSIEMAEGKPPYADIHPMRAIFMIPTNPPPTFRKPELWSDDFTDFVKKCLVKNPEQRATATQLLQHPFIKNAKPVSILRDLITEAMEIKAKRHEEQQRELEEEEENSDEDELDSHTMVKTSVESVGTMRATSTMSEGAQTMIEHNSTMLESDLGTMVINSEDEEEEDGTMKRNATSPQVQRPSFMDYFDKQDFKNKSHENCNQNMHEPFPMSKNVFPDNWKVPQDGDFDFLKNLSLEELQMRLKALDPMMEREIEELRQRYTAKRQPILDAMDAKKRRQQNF
Chain of Testis-specific serine/threonine-protein kinase 3 (Homo sapiens) (Q96PN8 whole entry): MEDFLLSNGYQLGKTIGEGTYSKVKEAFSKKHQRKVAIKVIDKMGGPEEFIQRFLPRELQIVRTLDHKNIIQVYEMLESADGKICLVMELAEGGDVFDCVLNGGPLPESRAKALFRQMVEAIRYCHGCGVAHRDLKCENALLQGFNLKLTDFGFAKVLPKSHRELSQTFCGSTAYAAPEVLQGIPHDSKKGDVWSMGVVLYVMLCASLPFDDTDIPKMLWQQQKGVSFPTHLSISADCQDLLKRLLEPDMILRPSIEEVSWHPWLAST

For `Cc1cc(C)c(CNc2nc(Cl)nc3c2ncn3C2CCCC2)c(=O)[nH]1`, the Activity in assay [1] was found to be 130%; in assay [2] it was 98%; in assay [3] it was 89.5%; in [4] it was 92%; in assay [5], 124%; in assay [6], 102%. Moreover, the Activity was found to be 100% in assay [7]; 99% in the assay filed under Mus musculus [9]; 110% in assay [10]; 98.5% in [11]; 46.2% with HCT-116 [12]; 99.5% in the assay listed under Mus musculus [13]. In addition, the Activity entry was “Dose-dependent effect” with SW-620 and 102% in assay [14]. For the same compound, the result in the assay with HCT-116 [8] was Active.
